Experimental data: patent publication US20150105252A1, “SUBSTITUTED PYRAZOLES AS HERBICIDES” (E I DU PONT DE NEMOURS AND COMPANY, priority 2013, published 2015)

Experiments:
Assay in all cases: Test C postemergence
blackgrass = type: in vivo, Alopecurus myosuroides
Summary of the method: (§1)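 Visual rating, 0–100 scale (0 no effect, 100 complete control), vs untreated controls after 13–15 d greenhouse. Pre: seeds in loam/sand, treated at sowing. Post: plants in peat-based mix, 1- to 4-leaf (2–18 cm). Solvent + surfactant formulation, non-phytotoxic.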

ryegrass, Italian = type: in vivo, Lolium multiflorum; settings: for Plant response rating, Ryegrass, Italian: postemergence
Summary of the method: as §1

wheat = type: in vivo, Triticum aestivum
Summary of the method: as §1

foxtail, giant = type: in vivo, Setaria faberii
Summary of the method: as §1

johnsongrass = type: in vivo, Sorghum halepense
Summary of the method: as §1

lambsquarters = type: in vivo, Chenopodium album
Summary of the method: as §1

morningglory = type: in vivo, Ipomoea coccinea
Summary of the method: as §1

nutsedge, yellow = type: in vivo, Cyperus esculentus
Summary of the method: as §1

pigweed = type: in vivo, Amaranthus retroflexus
Summary of the method: as §1

ragweed = type: in vivo, Ambrosia elation; settings: for Plant response rating, Ragweed: postemergence
Summary of the method: as §1

soybean = type: in vivo, Glycine max
Summary of the method: as §1

barnyardgrass = type: in vivo, Echinochloa crus-galli
Summary of the method: as §1

oilseed rape = type: in vivo, Brassica napus
Summary of the method: as §1

waterhemp = type: in vivo, Amaranthus rudis
Summary of the method: as §1

oat, wild = type: in vivo, Avena fatua
Summary of the method: as §1

kochia = type: in vivo, Kochia scoparia
Summary of the method: as §1

chickweed = type: in vivo, Stellaria media
Summary of the method: as §1

[1] = Postemergence, 31 g ai/ha, visually evaluated after 13 to 15 days
[2] = postemergence, 62 g ai/ha, scale 0 to 100
[3] = postemergence, 250 g ai/ha, scale 0 to 100 (0 no effect, 100 complete control)
[4] = postemergence, 125 g ai/ha, scale 0 to 100, 0 no effect, 100 complete control
[5] = 250 g ai/ha, scale 0 to 100 (0 no effect, 100 complete control)
[6] = 125 g ai/ha, scale 0 to 100, 0 no effect, 100 complete control

For `CCc1cc(C(=O)NC(C)C)nn1Cc1ccnc(C(F)(F)F)c1` [Compound 139], the “Plant response rating (scale of 0 to 100 where 0 is no effect and 100 is complete control), Blackgrass” value (blackgrass; [1]) was 20, the “Blackgrass plant response rating” value (blackgrass; [2]) was 20 and the “Plant response rating, Blackgrass” value (blackgrass; [3]) was 35. The “Plant response rating, Blackgrass” value (blackgrass; [4]) was 20, the “Plant response rating (scale of 0 to 100 where 0 is no effect and 100 is complete control), Ryegrass, Italian” value (ryegrass, Italian; [1]) was 0 and the “Plant response rating, Ryegrass, Italian” value (ryegrass, Italian; [5]) was 5. The “Plant response rating, Ryegrass, Italian” value (ryegrass, Italian; [6]) was 10, the “Plant response rating (scale of 0 to 100 where 0 is no effect and 100 is complete control), Wheat” value (wheat; [1]) was 5 and the “Plant response rating, Wheat” value (wheat; [3]) was 25. For the same compound, the “Wheat plant response rating” value (wheat; postemergence, scale 0 to 100) was 5, the “Plant response rating (scale of 0 to 100 where 0 is no effect and 100 is complete control), Foxtail, Giant” value (foxtail, giant; [1]) was 5 and the “Foxtail, Giant plant response rating” value (foxtail, giant; [2]) was 5. The “Plant response rating, Foxtail, Giant” value (foxtail, giant; [3]) was 65, the “Plant response rating, Foxtail, Giant” value (foxtail, giant; [4]) was 10 and the “Plant response rating (scale of 0 to 100 where 0 is no effect and 100 is complete control), Johnsongrass” value (johnsongrass; [1]) was 5. The “Johnsongrass plant response rating” value (johnsongrass; [2]) was 5, the “Plant response rating, Johnsongrass” value (johnsongrass; [3]) was 20 and the “Plant response rating, Johnsongrass” value (johnsongrass; [4]) was 10. For the same compound, the “Plant response rating (scale of 0 to 100 where 0 is no effect and 100 is complete control), Lambsquarters” value (lambsquarters; [1]) was 40, the “Lambsquarters plant response rating” value (lambsquarters; [2]) was 55 and the “Plant response rating, Lambsquarters” value (lambsquarters; [3]) was 85. The “Plant response rating, Lambsquarters” value (lambsquarters; [4]) was 70, the “Plant response rating (scale of 0 to 100 where 0 is no effect and 100 is complete control), Morningglory” value (morningglory; [1]) was 60 and the “Morningglory plant response rating” value (morningglory; [2]) was 60. For the same compound, the “Plant response rating, Morningglory” value (morningglory; [3]) was 80, the “Plant response rating, Morningglory” value (morningglory; [4]) was 90 and the “Plant response rating (scale of 0 to 100 where 0 is no effect and 100 is complete control), Nutsedge, Yellow” value (nutsedge, yellow; [1]) was 5. The “Nutsedge, Yellow plant response rating” value (nutsedge, yellow; [2]) was 5, the “Plant response rating, Nutsedge, Yellow” value (nutsedge, yellow; [3]) was 5 and the “Plant response rating, Nutsedge, Yellow” value (nutsedge, yellow; [4]) was 5. The “Plant response rating (scale of 0 to 100 where 0 is no effect and 100 is complete control), Pigweed” value (pigweed; [1]) was 30, the “Pigweed plant response rating” value (pigweed; [2]) was 40 and the “Plant response rating, Pigweed” value (pigweed; [3]) was 60. For the same compound, the “Plant response rating, Pigweed” value (pigweed; [4]) was 40, the “Plant response rating (scale of 0 to 100 where 0 is no effect and 100 is complete control), Ragweed” value (ragweed; [1]) was 35 and the “Plant response rating, Ragweed” value (ragweed; [5]) was 25. The “Plant response rating, Ragweed” value (ragweed; [6]) was 35, the “Plant response rating (scale of 0 to 100 where 0 is no effect and 100 is complete control), Soybean” value (soybean; [1]) was 15 and the “Plant response rating, Soybean” value (soybean; [3]) was 85. For the same compound, the “Soybean plant response rating” value (soybean; [4]) was 55, the “Plant response rating (scale of 0 to 100 where 0 is no effect and 100 is complete control), Barnyardgrass” value (barnyardgrass; [1]) was 10 and the “Barnyardgrass plant response rating” value (barnyardgrass; [2]) was 10. For the same compound, the “Plant response rating, Barnyardgrass” value (barnyardgrass; [3]) was 20, the “Plant response rating, Barnyardgrass” value (barnyardgrass; [4]) was 10 and the “Plant response rating (scale of 0 to 100 where 0 is no effect and 100 is complete control), Oilseed Rape” value (oilseed rape; [1]) was 20. The “Oilseed Rape plant response rating” value (oilseed rape; [2]) was 45, the “Plant response rating, Oilseed Rape” value (oilseed rape; [3]) was 50 and the “Plant response rating, Oilseed Rape” value (oilseed rape; [4]) was 50. The “Plant response rating (scale of 0 to 100 where 0 is no effect and 100 is complete control), Waterhemp” value (waterhemp; [1]) was 30, the “Plant response rating, Waterhemp” value (waterhemp; [3]) was 65 and the “Waterhemp plant response rating” value (waterhemp; postemergence, scale 0 to 100) was 55. The “Plant response rating (scale of 0 to 100 where 0 is no effect and 100 is complete control), Oat, Wild” value (oat, wild; [1]) was 10, the “Oat, Wild plant response rating” value (oat, wild; [2]) was 10 and the “Plant response rating, Oat, Wild” value (oat, wild; [3]) was 40. For the same compound, the “Plant response rating, Oat, Wild” value (oat, wild; [4]) was 30, the “Plant response rating (scale of 0 to 100 where 0 is no effect and 100 is complete control), Kochia” value (kochia; [1]) was 60 and the “Kochia plant response rating” value (kochia; [2]) was 75. The “Plant response rating, Kochia” value (kochia; [3]) was 85, the “Plant response rating, Kochia” value (kochia; [4]) was 85 and the “Plant response rating (scale of 0 to 100 where 0 is no effect and 100 is complete control), Chickweed” value (chickweed; [1]) was 60. For the same compound, the “Chickweed plant response rating” value (chickweed; [2]) was 60, the “Plant response rating, Chickweed” value (chickweed; [3]) was 80 and the “Plant response rating, Chickweed” value (chickweed; [4]) was 65.
